Values joined by “and” are separate entries in the source; they are usually repeats but may differ in a detail not shown here. Equal entries are not always repeated. One block for each molecule: values may come before it.
System: K86415-001-R-J1-PDC complex spheroids, viability
Assay: Anticancer human tumor K86415-001-R-J1-PDC patient-derived lung adenocarcinoma cell line growth inhibition [RAS]
Details: for viability, T/C: stronger effect = lower value
Summary of the method: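 Agents were tested in combination matrices in half-log decrements from a top concentration at or near clinical Cmax (10 microM if undetermined). Targets were multi-cell spheroids of tumour lines plus HUVEC and MSC stromal cells.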

[1] = curve of first compound, second compound 0.0316 µM
[2] = curve of first compound, second compound 0.1 µM
[3] = curve of first compound, second compound 0.316 µM
[4] = curve of first compound, second compound 1 µM
[5] = second compound 0.0316 µM, first compound 0.0316 µM
[6] = second compound 0.0316 µM, first compound 0.1 µM
[7] = second compound 0.0316 µM, first compound 0.316 µM
[8] = second compound 0.0316 µM, first compound 1 µM
[9] = second compound 0.1 µM, first compound 0.0316 µM
[10] = second compound 0.1 µM, first compound 0.1 µM
[11] = second compound 0.1 µM, first compound 0.316 µM
[12] = second compound 0.1 µM, first compound 1 µM
[13] = second compound 0.316 µM, first compound 0.0316 µM
[14] = second compound 0.316 µM, first compound 0.1 µM
[15] = second compound 0.316 µM, first compound 0.316 µM
[16] = second compound 0.316 µM, first compound 1 µM
[17] = second compound 1 µM, first compound 0.0316 µM
[18] = second compound 1 µM, first compound 0.1 µM
[19] = second compound 1 µM, first compound 0.316 µM
[20] = second compound 1 µM, first compound 1 µM
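Also: spheroids exposed to agents for seven days before readout.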

IC50 [1]: 83.3 nM | IC50 [2]: 93 nM | IC50 [3]: 70 nM | IC50 [4]: 45.5 nM | IC50 (curve of first compound, second compound 3.16 µM): < 3.16 nM | IC50 (curve of first compound, second compound 10 µM): < 3.16 nM
SMILES: Nc1ccn(C2OC(CO)C(O)C2(F)F)c(=O)n1 (stereo not drawn) + C#Cc1c(F)ccc2cc(O)cc(-c3ncc4c(N5CC6CCC(C5)N6)nc(OCC56CCCN5CC(F)C6)nc4c3F)c12
viability, T/C (second compound 0.0316 µM, first compound 0.00316 µM): 92.8% | viability, T/C (second compound 0.0316 µM, first compound 0.01 µM): 95% | viability, T/C [5]: 70% | viability, T/C [6]: 48.2% | viability, T/C [7]: 24.9% | viability, T/C [8]: 21.6% | viability, T/C (second compound 0.1 µM, first compound 0.00316 µM): 92.6% | viability, T/C (second compound 0.1 µM, first compound 0.01 µM): 96.6% | viability, T/C [9]: 70.8% | viability, T/C [10]: 50.7% | viability, T/C [11]: 26.6% | viability, T/C [12]: 19.6% | viability, T/C (second compound 0.316 µM, first compound 0.00316 µM): 90% | viability, T/C (second compound 0.316 µM, first compound 0.01 µM): 83.3% | viability, T/C [13]: 60.3% | viability, T/C [14]: 48.1% | viability, T/C [15]: 23.8% | viability, T/C [16]: 19.5% | viability, T/C (second compound 1 µM, first compound 0.00316 µM): 79.1% | viability, T/C (second compound 1 µM, first compound 0.01 µM): 69.5% | viability, T/C [17]: 54% | viability, T/C [18]: 40.9% | viability, T/C [19]: 22.7% | viability, T/C [20]: 15.7% | viability, T/C (second compound 3.16 µM, first compound 0.00316 µM): 41.3% | viability, T/C (second compound 3.16 µM, first compound 0.01 µM): 35.4% | viability, T/C (second compound 3.16 µM, first compound 0.0316 µM): 29.7% | viability, T/C (second compound 3.16 µM, first compound 0.1 µM): 28.9% | viability, T/C (second compound 3.16 µM, first compound 0.316 µM): 23.6% | viability, T/C (second compound 3.16 µM, first compound 1 µM): 21.2% | viability, T/C (second compound 10 µM, first compound 0.00316 µM): 17.4% | viability, T/C (second compound 10 µM, first compound 0.01 µM): 17% | viability, T/C (second compound 10 µM, first compound 0.0316 µM): 16.8% | viability, T/C (second compound 10 µM, first compound 0.1 µM): 13.6% | viability, T/C (second compound 10 µM, first compound 0.316 µM): 15.5% | viability, T/C (second compound 10 µM, first compound 1 µM): 14.5%

IC50 (curve of first compound, second compound 0.000949 µM): < 31.6 nM | IC50 (curve of first compound, second compound 0.003 µM): < 31.6 nM | IC50 (curve of first compound, second compound 0.00949 µM): < 31.6 nM | IC50 (curve of first compound, second compound 0.03 µM): < 31.6 nM | IC50 (curve of first compound, second compound 0.0949 µM): < 31.6 nM | IC50 (curve of first compound, second compound 0.3 µM): < 31.6 nM
SMILES: Cc1nc(N2CCC3(CC2)COC(C)C3N)c(CO)nc1Sc1ccnc(N)c1Cl (stereo not drawn) + CCn1c(-c2cccnc2C(C)OC)c2c3cc(ccc31)N1CCOC(CC(NC(=O)C(C(C)C)N(C)C(=O)C3(F)CCN(C(=O)C#CC(C)(C)N(C)C)CC3)C(=O)N3CCCC(N3)C(=O)OCC(C)(C)C2)C1
viability, T/C (second compound 0.000949 µM, first compound 0.0316 µM): 29.3% | viability, T/C (second compound 0.000949 µM, first compound 0.1 µM): 16.5% | viability, T/C (second compound 0.000949 µM, first compound 0.316 µM): 7.93% | viability, T/C (second compound 0.000949 µM, first compound 1 µM): 9.19% | viability, T/C (second compound 0.000949 µM, first compound 3.16 µM): 6.66% | viability, T/C (second compound 0.000949 µM, first compound 10 µM): 4.12% | viability, T/C (second compound 0.003 µM, first compound 0.0316 µM): 8.24% | viability, T/C (second compound 0.003 µM, first compound 0.1 µM): 6.74% | viability, T/C (second compound 0.003 µM, first compound 0.316 µM): 5.5% | viability, T/C (second compound 0.003 µM, first compound 1 µM): 7.84% | viability, T/C (second compound 0.003 µM, first compound 3.16 µM): 3.89% | viability, T/C (second compound 0.003 µM, first compound 10 µM): 3.06% | viability, T/C (second compound 0.00949 µM, first compound 0.0316 µM): 7.59% | viability, T/C (second compound 0.00949 µM, first compound 0.1 µM): 5.87% | viability, T/C (second compound 0.00949 µM, first compound 0.316 µM): 5.22% | viability, T/C (second compound 0.00949 µM, first compound 1 µM): 4.38% | viability, T/C (second compound 0.00949 µM, first compound 3.16 µM): 3.17% | viability, T/C (second compound 0.00949 µM, first compound 10 µM): 3.06% | viability, T/C (second compound 0.03 µM, first compound 0.0316 µM): 10.5% | viability, T/C (second compound 0.03 µM, first compound 0.1 µM): 6.71% | viability, T/C (second compound 0.03 µM, first compound 0.316 µM): 5.16% | viability, T/C (second compound 0.03 µM, first compound 1 µM): 4.22% | viability, T/C (second compound 0.03 µM, first compound 3.16 µM): 3.35% | viability, T/C (second compound 0.03 µM, first compound 10 µM): 3.62% | viability, T/C (second compound 0.0949 µM, first compound 0.0316 µM): 9.27% | viability, T/C (second compound 0.0949 µM, first compound 0.1 µM): 6.46% | viability, T/C (second compound 0.0949 µM, first compound 0.316 µM): 4.18% | viability, T/C (second compound 0.0949 µM, first compound 1 µM): 4.43% | viability, T/C (second compound 0.0949 µM, first compound 3.16 µM): 3.06% | viability, T/C (second compound 0.0949 µM, first compound 10 µM): 2.77% | viability, T/C (second compound 0.3 µM, first compound 0.0316 µM): 8.31% | viability, T/C (second compound 0.3 µM, first compound 0.1 µM): 6.71% | viability, T/C (second compound 0.3 µM, first compound 0.316 µM): 5.12% | viability, T/C (second compound 0.3 µM, first compound 1 µM): 4.01% | viability, T/C (second compound 0.3 µM, first compound 3.16 µM): 3.5% | viability, T/C (second compound 0.3 µM, first compound 10 µM): 2.86%

IC50 (curve of first compound, second compound 0.00316 µM): < 31.6 nM | IC50 (curve of first compound, second compound 0.01 µM): < 31.6 nM | IC50 [1]: < 31.6 nM | IC50 [2]: < 31.6 nM | IC50 [3]: < 31.6 nM | IC50 [4]: < 31.6 nM
SMILES: CC(C)NCC(C(=O)N1CCN(c2ncnc3c2C(C)CC3O)CC1)c1ccc(Cl)cc1 (stereo not drawn) + C=CC(=O)N1CCN(c2nc(OCC3CCCN3C)nc3c(F)c(-c4nc(N)cc(C)c4C(F)(F)F)c(Cl)cc23)C(C)C1
viability, T/C (second compound 0.00316 µM, first compound 0.0316 µM): 15.9% | viability, T/C (second compound 0.00316 µM, first compound 0.1 µM): 17.9% | viability, T/C (second compound 0.00316 µM, first compound 0.316 µM): 13.7% | viability, T/C (second compound 0.00316 µM, first compound 1 µM): 11.4% | viability, T/C (second compound 0.00316 µM, first compound 3.16 µM): 22.4% | viability, T/C (second compound 0.00316 µM, first compound 10 µM): 18.6% | viability, T/C (second compound 0.01 µM, first compound 0.0316 µM): 13.2% | viability, T/C (second compound 0.01 µM, first compound 0.1 µM): 14.1% | viability, T/C (second compound 0.01 µM, first compound 0.316 µM): 8.15% | viability, T/C (second compound 0.01 µM, first compound 1 µM): 7.26% | viability, T/C (second compound 0.01 µM, first compound 3.16 µM): 9.79% | viability, T/C (second compound 0.01 µM, first compound 10 µM): 5.61% | viability, T/C [5]: 11.2% | viability, T/C [6]: 12.1% | viability, T/C [7]: 6.32% | viability, T/C [8]: 6.17% | viability, T/C (second compound 0.0316 µM, first compound 3.16 µM): 6.03% | viability, T/C (second compound 0.0316 µM, first compound 10 µM): 3.62% | viability, T/C [9]: 17.1% | viability, T/C [10]: 9.65% | viability, T/C [11]: 7.67% | viability, T/C [12]: 4.58% | viability, T/C (second compound 0.1 µM, first compound 3.16 µM): 6.35% | viability, T/C (second compound 0.1 µM, first compound 10 µM): 2.96% | viability, T/C [13]: 12.1% | viability, T/C [14]: 8.49% | viability, T/C [15]: 6.58% | viability, T/C [16]: 5.42% | viability, T/C (second compound 0.316 µM, first compound 3.16 µM): 7.11% | viability, T/C (second compound 0.316 µM, first compound 10 µM): 4.04% | viability, T/C [17]: 9.4% | viability, T/C [18]: 10.8% | viability, T/C [19]: 7.39% | viability, T/C [20]: 6.41% | viability, T/C (second compound 1 µM, first compound 3.16 µM): 5.23% | viability, T/C (second compound 1 µM, first compound 10 µM): 3.49%

IC50 (curve of compound): 2.52 nM [middle of 4 runs]
SMILES: CCc1c2c(nc3ccc(O)cc13)-c1cc3c(c(=O)n1C2)COC(=O)[C@]3(O)CC
viability, T/C (compound 0.000949 µM): 102% (2×) and 97.3% and 88.2% | viability, T/C (compound 0.003 µM): 38.8% [middle of 4 runs] | viability, T/C (compound 0.00949 µM): 23.2% [middle of 4 runs] | viability, T/C (compound 0.03 µM): 17.6% [middle of 4 runs] | viability, T/C (compound 0.0949 µM): 13.3% [middle of 4 runs] | viability, T/C (compound 0.3 µM): 5.27% [middle of 4 runs]
